Experiment [1] concerns the target T1, squalene synthase (human HepG2 enzyme) (Homo sapiens, UniProt P37268).
T1 construct: The resulting pellet from the 100,000×g centrifugation, containing the squalene synthase, was resuspended in 5 ml of enzyme suspension buffer; endogenous in cells; host or cells: HepG2 cells (ATCC HB 8065), 100,000×g microsomal pellet
T1 sequence (P37268 1-417): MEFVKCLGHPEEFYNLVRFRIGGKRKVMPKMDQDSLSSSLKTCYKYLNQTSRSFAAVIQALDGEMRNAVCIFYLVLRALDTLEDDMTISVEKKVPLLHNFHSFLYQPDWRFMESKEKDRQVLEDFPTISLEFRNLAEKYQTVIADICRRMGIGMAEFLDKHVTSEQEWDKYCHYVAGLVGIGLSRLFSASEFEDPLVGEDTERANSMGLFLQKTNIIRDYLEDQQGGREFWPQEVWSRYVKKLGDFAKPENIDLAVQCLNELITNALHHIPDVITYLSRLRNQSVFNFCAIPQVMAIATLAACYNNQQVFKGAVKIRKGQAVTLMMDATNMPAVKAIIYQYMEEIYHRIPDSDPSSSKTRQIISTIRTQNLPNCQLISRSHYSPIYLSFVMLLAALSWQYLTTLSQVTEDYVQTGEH
Briefly: Squalene synthase assay, human HepG2 cell enzyme. The following applies: 3 μM 3H-farnesyl pyrophosphate, 30°, 20 minutes. The format is biochemical. As for the experimental part:
The intrinsic squalene synthase inhibitory activity of representative compounds of this invention was also measured by the standard in vitro protocol described below:
PREPARATION OF HUMAN HepG2 cell ENZYME
1. SOURCE: HEPG2 CELL LINE (Liver, hepatoblastoma, Human) ATCC No. HB 8065
2. CELL GROWTH AND MAINTENANCE
Culture Medium: Minimum essential medium (MEM) with non essential amino acids, sodium pyruvate, and 10% fetal bovine serum. The medium was changed twice weekly. […] The growth medium was prepared as listed below:
SUBCULTURE PROCEDURE: The medium was removed and washed with PBS (Phosphate-Buffered Saline 15.6 mM. pH 7.0). Fresh trypsin (0.25%)-EDTA (0.02%) with Hank's Balanced Salt solution was added and the flask was allowed to stand for a minute before the trypsin was removed. The flask was incubated at 37° C. until cells detached. Fresh medium was added and the cells were dispersed and dispensed into new flasks. Subcultivation ration: 1:6. […]
HARVEST: The medium was removed and the cells were washed with PBS. […] Cells 1 were counted (2.5×10^9 yield from 18 flasks (75cm^2)), and resuspended in 10 ml of 50 mM HEPES (N-[2-Hydroxyethyl]piperazine-N'-[2-ethane sulfonic acid]) containing 5 mM MgCl2, 2 mM MnCl2, 10 mM DTT, pH 7.5 (enzyme suspension buffer). […]

In experiment [2] the target is T2, squalene synthase (rat liver enzyme) (Rattus norvegicus, UniProt Q02769).
T2 construct: from tissue; host or cells: liver microsomes of male Charles River CD rats fed 0.1% lovastatin for 4 days
T2 sequence (Q02769 1-416): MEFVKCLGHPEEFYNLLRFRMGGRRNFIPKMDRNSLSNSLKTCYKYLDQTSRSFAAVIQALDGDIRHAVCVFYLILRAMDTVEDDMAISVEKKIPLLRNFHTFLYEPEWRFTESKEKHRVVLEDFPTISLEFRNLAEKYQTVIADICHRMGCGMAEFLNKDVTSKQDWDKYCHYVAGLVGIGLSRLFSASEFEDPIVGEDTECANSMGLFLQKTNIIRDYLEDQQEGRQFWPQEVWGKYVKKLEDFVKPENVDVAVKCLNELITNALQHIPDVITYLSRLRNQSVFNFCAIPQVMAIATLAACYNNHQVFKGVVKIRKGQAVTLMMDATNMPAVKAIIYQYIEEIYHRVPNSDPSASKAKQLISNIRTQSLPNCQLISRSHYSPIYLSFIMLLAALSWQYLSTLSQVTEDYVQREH
Kind of experiment: Squalene synthase assay using rat liver microsomes. The format is biochemical. The following applies: [3H]farnesyl-pyrophosphate, 30° C., 20 minutes. On the procedure:
The squalene synthase assay using rat liver microsomes is described below:
Preparation of Rat Liver Microsomes
Male, Charles River CD rats (120 to 150 g) were fed a diet containing 0.1% lovastatin for 4 days. The livers from these rats were homogenized in 5 volumes (ml/g) of ice cold 50 mM HEPES (4-(2-hydroxyethyl)-1-piperazine ethanesulfonic acid), 5 mM EDTA (ethylenediaminetetraacetic acid) pH 7.5 with a Potter-Elvehjem type tissue grinder. The homogenate was centrifuged twice at 20,000×g for 15 minutes at 4° C., discarding the pellet each time. The supernatant was then centrifuged at 100,000×g for 1 hour at 4° C. The resulting microsomal pellet was resuspended in a volume of the above homogenizing buffer equal to one fifth the volume of the original homogenate. This microsomal preparation has a protein concentration of about 7 mg/ml. The microsomal suspensions were stored in aliquots at -70° C. […]
If a squalene epoxidase inhibitor (ingredient 7, above) is not used, the assay mix is degassed under a vacuum and flushed with N2. […] Five ml of scintillation fluid was added to the heptane solution and radioactivity was determined by liquid scintillation counting.
Percent inhibition is calculated by the formula: [formula]
IC50 values were determined by plotting the log of the concentration of the test compound versus the percentage inhibition. […]
A general note: Liver microsomes are vesicles of endoplasmic reticulum, rich in cytochrome P450 enzymes.

The test system of another experiment is Ras farnesylation. The note with it: literature (Hancock et al.; Casey et al.; Schafer et al.); cited from earlier work.

This is an account of results in US5270332A, “Cholesteral lowering agents” (Merck & Co., Inc., priority 1992, dated 1993).

On to `CC(O)C(O)CCCCC=CCCCCC(=O)OC1C(O)C2(CCC(C)C(O)C(C)CC=Cc3ccccc3)OC(C(=O)O)C(O)(C(=O)O)C1(C(=O)O)O2` (stereo not shown) [Compound A], for which the results for the IC50 in experiment [1] and in experiment [2] were 31 nM and 5.6 nM, respectively.

Regarding `CC[C@H](C)C(=O)O[C@H]1CCC=C2C=C[C@H](C)[C@H](CC[C@@H]3C[C@@H](O)CC(=O)O3)[C@H]21` [compactin], the “Inhibition of Ras farnesylation in vivo” value with Ras farnesylation is reported as “Inhibition of Ras farnesylation in vivo has been demonstrated”.

With `CC[C@H](C)C(=O)O[C@H]1C[C@@H](C)C=C2C=C[C@H](C)[C@H](CC[C@@H]3C[C@@H](O)CC(=O)O3)[C@H]21` [lovastatin], the “Inhibition of Ras farnesylation in vivo” value with Ras farnesylation is “Inhibition of Ras farnesylation in vivo has been demonstrated”.

As a reminder, the IC50 is the midpoint of a concentration-inhibition curve.
